This note sets out measurements from publication PMC5531494, “Target specificity, in vivo pharmacokinetics, and efficacy of the putative STAT3 inhibitor LY5 in osteosarcoma, Ewing's sarcoma, and rhabdomyosarcoma” (PLoS ONE, 2017).

Usually bioavailability stands for the share of a dose that reaches the circulation, judged against a reference dose that is usually intravenous. By AUC is commonly meant the area under the concentration-time curve, a measure of exposure. Read a high AUC as high exposure. As a reminder, the Cmax is the peak of the concentration-time curve.

For one data set, the system named is OS-17-luc cells. Briefly: Murine model of OS pulmonary metastasis, bioluminescent imaging. It is filed as in vivo, mice. To be noted: 20 mg/kg LY5 daily oral gavage for 30 days, vs vehicle. On the procedure:
The ability of LY5 to inhibit pulmonary metastases was evaluated using a murine model of OS pulmonary metastasis. 8-week-old C.B-17 scid -/- female mice (Envigo, Madison, WI) received IV inoculation with 10^6 OS-17-luc cells expressing a luciferase reporter gene. OS-17-luc cells were generated by infecting OS-17 wild type cells with lentivirus containing the firefly luciferase under a CMV promoter (Cellomics Technology, Hallethorpe, MD) and selected with 0.5 ug/mL puromycin (Thermo Fisher Scientific, Waltham, MA). Beginning 24 hrs after inoculation, mice received vehicle (n = 10) or 20 mg/kg LY5 once daily via oral gavage (n = 9, one mouse died within 24 hrs after cell inoculation). LY5 was prepared by diluting a 40 mg/mL solution/slurry with a 50% propylene glycol/1% Tween 20 in water vehicle immediately before administration. Mice were treated with LY5 for 30 days, and bioluminescent imaging (after IP luciferin administration) was performed to determine pulmonary metastatic disease load. To investigate the pharmacodynamics (PD) effects of LY5, pSTAT3 (p-Tyr705, ab76315, Abcam) and total STAT3 (ab119352, Abcam) were evaluated in pulmonary metastatic lesions using IHC in lung samples from mice euthanized 24 hrs after their last dose.
(A-B) IHC staining of lung metastasis from mice treated with LY5. The metastatic tumor sections were stained with pSTAT3 or hematoxylin and eosin. […]

A short description of data set [1]: PK in normal beagle dogs, IV and oral gavage. Format: in vivo. The note with it: plasma; for bioavailability: dog, po, read-out: F (oral bioavailability). On the procedure:
LY5 was evaluated in two normal purpose-bred beagle dogs (female 8.8 kg; male 11.2 kg) receiving a single dose of 1mg/kg LY5 IV then orally by gavage 7 days later to establish the PK profile and assess the spectrum of clinical toxicities associated with LY5 administration. The oral dosing was repeated in the fed and fasted state. The starting dose was determined based on allometric scaling from the maximal tolerated dose studies performed in mice. Dogs were washed out for 30 days, and then given a dose of 25 mg in a capsule orally, followed by a 50 mg capsule dose 14 days later. Full PK sampling was performed over 24 hours following each dose of LY5. The dogs received LY5 and were used for the PK analysis but were not euthanized upon conclusion of the study.
The liquid chromatography-mass spectrometry system utilized for these analyses consisted of a Dionex Ultimate 3000 RSLCnano High Performance Liquid Chromatography system and a Thermo Finnigan Quantum Ultras EMR mass spectrometer with an electrospray ionization source. Positive ionization mode was used for both LY5 and the internal standard, hesperetin. Plasma samples were collected and analyzed by the OSU James Comprehensive Cancer Center Pharmacoanalytical Shared Resource. Pharsight Phoenix WinNonlin software using non-compartmental analysis was used to generate PK parameters including maximum plasma concentration (Cmax), amount of time that drug is present at Cmax (Tmax), and total area under the curve (AUC). AUC all and AUC last were calculated by linear trapezoidal method of concentration-time curve up to the last measured point. AUC inf-obs was calculated by log-linear extrapolation of the terminal phase beyond the last collection time. Bioavailability (F) was calculated for IP and PO administration routes. Plasma stability and liver microsomal stability of LY5 were also assessed through this shared resource.

For another data set, the target named is T1, STAT6 (Homo sapiens, UniProt P42226).
T1 construct: endogenous in cells; host or cells: SJSA
T1 sequence (P42226 whole entry): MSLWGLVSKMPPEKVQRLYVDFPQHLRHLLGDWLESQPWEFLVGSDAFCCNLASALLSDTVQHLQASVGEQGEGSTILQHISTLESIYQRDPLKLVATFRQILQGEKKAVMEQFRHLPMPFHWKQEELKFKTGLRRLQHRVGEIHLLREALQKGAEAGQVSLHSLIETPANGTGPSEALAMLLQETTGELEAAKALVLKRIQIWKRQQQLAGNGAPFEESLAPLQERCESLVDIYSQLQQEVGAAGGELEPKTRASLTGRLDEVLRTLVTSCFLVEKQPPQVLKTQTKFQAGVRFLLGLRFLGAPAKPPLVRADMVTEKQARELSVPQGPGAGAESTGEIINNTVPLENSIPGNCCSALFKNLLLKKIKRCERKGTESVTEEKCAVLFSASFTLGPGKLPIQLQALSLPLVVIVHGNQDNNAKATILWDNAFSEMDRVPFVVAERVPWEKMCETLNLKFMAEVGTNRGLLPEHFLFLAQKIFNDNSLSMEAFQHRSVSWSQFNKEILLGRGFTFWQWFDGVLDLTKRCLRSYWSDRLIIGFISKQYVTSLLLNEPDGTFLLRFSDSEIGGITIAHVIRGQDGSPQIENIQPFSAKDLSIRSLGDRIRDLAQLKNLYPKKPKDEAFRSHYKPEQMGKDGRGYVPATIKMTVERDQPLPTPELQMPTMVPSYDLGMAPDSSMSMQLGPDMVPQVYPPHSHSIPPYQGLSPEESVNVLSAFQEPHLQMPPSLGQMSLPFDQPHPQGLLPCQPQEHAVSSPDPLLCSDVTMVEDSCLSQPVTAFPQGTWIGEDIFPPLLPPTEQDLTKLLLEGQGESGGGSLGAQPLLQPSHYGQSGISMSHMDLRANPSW
Briefly: Cytokine-induced STAT6 phosphorylation in SJSA cells, Western blot. It is filed as cell-based. To be noted: induced by IFN-γ, IFN-α, or IL-4. On the procedure:
Cell lysis, protein isolation and immunoblotting were performed as described previously. Twenty micrograms of protein were resolved using 4–12% Bis-Tris polyacrylamide gels. Gels were transferred to PVDF membranes and subjected to blocking and incubation with primary and secondary antibodies. The primary antibodies used in this study included: phospho-STAT3 (Tyr705, Cell Signaling, Boston, MA and Abcam, Cambridge, MA), total STAT3 (Cell Signaling and Abcam), phospho-STAT1 (Cell Signaling), total STAT1 (Cell Signaling), phospho-STAT2 (Cell Signaling), phospho-STAT4 (Cell Signaling), phospho-STAT6 (Cell Signaling), and GAPDH (Cell Signaling). Protein bands were detected using Western Lightning ® Plus Enhanced Chemiluminescence substrate (Perkin Elmer, Waltham, MA) and HyBlot CL ® Autoradiography film (Denville Scientific, Holliston, MA). The cytokines used in this study included: interferon gamma (IFN-γ, Cell Signaling), interferon alpha (IFN-α, Cell Signaling), interleukin-4 (IL-4, Cell Signaling), interleukin-6 (IL-6, Cell Signaling), and oncostatin M (OSM, Cell Signaling).
Fig 1 LY5 inhibits pSTAT3 in sarcoma cell lines. (A) The tumor cell lines RH30, EW8, and RD were treated with increasing concentrations of LY5 for 30 minutes. Cell lysates were collected for Western blotting of p-STAT3, total STAT3, and GAPDH. GAPDH was used as loading control. […]
Background: In western blotting, separated proteins are transferred to a membrane and probed.

A further data set is described as follows: Protein binding in mice. It is filed as in vitro ADME.
[2] abbreviates: female, Dog #2, PO fed, 1.28 mg/kg, dog vomited 10 min after dosing.
Where [3] appears, read: female, Dog #2, PO w/ fast, 0.9 mg/kg.
Setting [4] is: male, Dog #1, PO fed, 1.28 mg/kg.
Where [5] appears, read: male, Dog #1, PO w/ fast, 0.9 mg/kg.

Where two headings read alike, the source gives them in different places.

For `NS(=O)(=O)c1cccc2c1C(=O)C=C(Nc1cccnc1)C2=O` [LY5, 5,8-dioxo-6-(pyridin-3-ylamino)-5,8-dihydronaphthalene-1-sulfonamide], in the data set on OS-17-luc cells, the “development of pulmonary metastatic lesions (luciferase expression)” value is “no difference”. For the same compound, the bioavailability is 44.3% in data set [1] (female, 0.9 mg/kg, Dog #2, PO w/ fast (fasted female dog)); 44% in data set [1] (female, 1 mg/kg, Dog #2, PO w/ fast (fasted female dog)); 5% in data set [1] (female, 1.28 mg/kg, Dog #2, PO fed, dog vomited 10 min after dosing); 51.6% in data set [1] (male, 0.9 mg/kg, Dog #1, PO w/ fast (fasted male dog)); 14% in data set [1] (male, 1 mg/kg, Dog #1, PO fed); 52% in data set [1] (male, 1 mg/kg, Dog #1, PO w/ fast (fasted male dog)). In addition, the bioavailability in data set [1] (male, 1.28 mg/kg, Dog #1, PO fed) worked out at 13.7%. In addition, the AUC turned out to be 3.92 µM·h in data set [1] (female, Dog #2, IV, 0.97 mg/kg); 0.258 µM·h in data set [1] (setting [2]); 1.61 µM·h in data set [1] (setting [3]); 5.1 µM·h in data set [1] (male, Dog #1, IV, 0.97 mg/kg); 0.924 µM·h in data set [1] (setting [4]); 2.44 µM·h in data set [1] (setting [5]). Besides, the Cmax in data set [1] (female, Dog #2, IV, 0.97 mg/kg) is 3220 nM; in data set [1] (setting [2]) it was 60.4 nM; in data set [1] (setting [3]) it was 500 nM; in data set [1] (male, Dog #1, IV, 0.97 mg/kg), 5590 nM; in data set [1] (setting [4]), 206 nM; in data set [1] (setting [5]) it was 1280 nM. The “phosphorylation of STAT6” value on STAT6 is given as “did not inhibit”. Also, the drug protein-bound result in the data set “Protein binding in mice” is given as “Approximately 90%”.
